Values of other authors in patent US10413482B2, “Delamination resistant pharmaceutical glass containers containing active pharmaceutical ingredients” (Corning Incorporated, priority 2011, dated 2019).

Legend:
[1] = system: patients with acute coronary syndrome (ACS); settings: in vivo
[2] = not given; remark: listed apart in the source
[3] = for duration of action: after injection
[4] = system: patients with moderate to severe ulcerative colitis; settings: in vivo
[5] = system: patients whose asthma cannot be adequately controlled with inhalable glucocorticoids; settings: in vivo
[6] = once-daily
[7] = system: adults with late-onset LAL Deficiency

In the case of `COC(=O)[C@H](Cc1cccc(C(=N)N)c1)[C@@H](C)NC(=O)c1ccc(-c2cc[n+]([O-])cc2)cc1` (mixture of isomers) [Otamixaban, reference compound], the “degradation during sterilization and storage” value (formulations at pH between 3 and 5) is given as “decreased otamixaban degradation during sterilization and storage” and the major coronary complications [1] is given as “reduce major coronary complications”.

In the case of `[Cl][223Ra][Cl]` [Radium-223, Radium-223 dichloride], the half-life [2] is listed as 11.4 days.

In the case of Insulin detemir, the duration of action [3] is given as “up to 24 hours”.

In the case of “Vedolizumab: humanized monoclonal antibody targeting α4β7 integrin”, the “safety and clinical remission” value [4] is listed as “safe and effective for inducing and maintaining clinical remission”.

In the case of insulin degludec, the duration of action [3] is given as “more than 24 hours”.

In the case of “insulin regular: formulation of recombinant insulin structurally identical to the insulin produced by the human pancreas”, the duration of action [3] is listed as “approximately 8 hours” and the “onset of pharmacologic effect” value ([3]; after subcutaneous administration) is listed as “approximately one-half”.

In the case of “lebrikizumab: humanized monoclonal antibody against interleukin-13 (IL-13)”, the symptoms of asthma [5] is given as “significantly decrease the symptoms of asthma”.

For lixisenatide, the tolerability [6] is given as “well-tolerated” and the glycemic control ([6]; one-step dose increase, single maintenance dose) is given as “significantly improved glycemic control”.

In the case of relaxin, the shelf-life (approximately pH 5, 5° C., acceptable reduction of 10% in the HPLC main peak area) is listed as “at least 2 years”.

B1: SBC-102: recombinant form of the human LAL enzyme (protein, UniProt P38571 77-399, looked up)
Lysosomal acid …: GPKPVVFLQHGLLADSSNWVTNLANSSLGFILADAGFDVWMGNSRGNTWSRKHKTLSVSQDEFWAFSYDEMAKYDLPASINFILNKTGQEQVYYVGHSQGTTIGFIAFSQIPELAKRIKMFFALGPVASVAFCTSPMAKLGRLPDHLIKDLFGDKEFLPQSAFLKWLGTHVCTHVILKELCGNLCFLLCGFNERNLNMSRVDVYTTHSPAGTSVQNMLHWSQAVKFQKFQAFDWGSSAKNYFHYNQSYPPTYNVKDMLVPTAVWSGGHDWLADVYDVNILLTQITNLVFHESIPEWEHLDFIWGLDAPWRLYNKIINLMRKYQ
For B1, the LDL ([7]; same time period) is given as “a reduction in LDL was also observed”, the “total cholesterol, HDL cholesterol, and triglycerides” value ([7]; versus original baseline, p<0.05) is given as “significantly improved” and the liver transaminase levels ([7]; weekly then every other week infusions) is given as “sustained impact of SBC-102 on reducing liver transaminase levels”.
